The conditions of data set [1]: higher dosages for a long period, clinical; cited from earlier work.
The target of data set [2] is T1, Δ^4 -5β-reductase for aldosterone in rat liver (Rattus norvegicus, UniProt P31210).
T1 construct: centrifuged again at 105,000 g to obtain Δ^4 -5β-reductase as the supernatant; from tissue; host or cells: rat liver, 105,000 g supernatant (cytosol)
T1 sequence (P31210 1-326): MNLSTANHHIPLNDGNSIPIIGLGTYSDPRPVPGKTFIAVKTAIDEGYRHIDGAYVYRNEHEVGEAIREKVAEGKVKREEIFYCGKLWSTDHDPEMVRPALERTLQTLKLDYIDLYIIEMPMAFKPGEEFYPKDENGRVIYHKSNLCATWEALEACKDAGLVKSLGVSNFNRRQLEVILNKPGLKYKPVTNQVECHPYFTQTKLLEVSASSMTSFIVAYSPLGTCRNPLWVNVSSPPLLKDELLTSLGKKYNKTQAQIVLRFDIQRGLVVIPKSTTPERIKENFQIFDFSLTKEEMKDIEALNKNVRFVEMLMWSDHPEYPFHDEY
Put plainly: inhibitory action on Δ^4-5β-reductase for aldosterone. Type of data set: biochemical. On the procedure: (§1) In vitro experimental results regarding effects of glycyrrhetinic acid (II) and its modified compounds (III), (IV), and (I) on Δ^4 -5α and 5β-reductase for aldosterone in rat liver will be shown below.
(§2) Assay for activity of Δ^4 -5α and 5β-reductase
(§3) (1) Preparation of enzyme solutions
(§4) Rat livers were perfused with saline and excised to prepare a 25% or 50% homogenate with a solution of 0.25 M sucrose and 1 mM EDTA. The homogenate was spun at 10,000 g for 20 minutes to separate supernatant, which was centrifuged again at 105,000 g to obtain Δ^4 -5β-reductase as the supernatant. The pellet was appropriately diluted with a solution of 0.25 M sucrose-1 mM EDTA to use as a 5α-reductase solution.
(§5) (2) Conditions for incubation and assay
(§6) 1 Aldosterone . . . 0.173 μM/0.05 ml ethanol solution
(§7) 2 Glycyrrhetinic acid or its modified compounds . . . 0.173 μM/0.05 ml ethanol solution Control . . . 0.05 ml ethanol solution
(§8) 5α-reductase solution 0.1 ml
(§9) 5β-reductase solution 0.1 ml or 0.2 ml
(§10) 5 Phosphate buffer (0.1 M, pH 7.2) 1 ml
(§11) The components 1 , 2 , 3 , 4 , 5 , and 6 mentioned above were mixed to bring the total volume up to 2.5 ml. The mixture was incubated at 37° C. for 20 minutes. Before the incubation, however, 1 ml aliquot was removed from 2.5 ml of the mixture mentioned above and extracted with 5 ml of methylene dichloride. After the incubation, the remaining 1.5 ml was extracted with 5 ml of methylene dichloride. The optical density of the two methylene dichloride solutions prepared before and after the incubation was measured by a spectrophotometer (Hitachi) at 240 mμ. Inhibition % of Δ^4 -5α and 5β-reductase activity was calculated from the difference in the optical density.

Data set [3] concerns ulcers induced by acetic acid. The data set is described as follows: experiments with rats on ulcers induced by acetic acid (chronic gastric ulcers). Further details: ulcer value (major axis × minor axis): unit not given here. Particulars: for ulcer value (major axis × minor axis): p.o., 14 days. Type of data set: in vivo. On the procedure:
(c) Experiments with rats on ulcers induced by acetic acid
Chronic gastric ulcers were induced by penetrating 100% acetic acid serosally into gastric wall for 60 sec. using a small cup (6 mm in diameter, 5 mm in height).
From the next day, compounds to be tested were administered orally twice a day (morning and evening) for 14 days. Autopsies were carried out 15 days after the administrations.

A further data set has as its system stress-induced ulcer. The data set is described as follows: mice experiments on stress-induced ulcer (restraint plus water immersion). It counts as in vivo, male ddY mice. Particulars: for inhibitory effect on stress-induced ulcer (in words): 200 mg/kg. On the procedure:
(a) Mice Experiments on stress-induced ulcer Experimental procedures:
Male ddY mice weighing about 20 g were made to fast for 18 hours. Water was given freely. Compounds to be tested were suspended in Tween 80 to prepare an aqueous suspension and administered orally. Immediately thereafter, the mice were subjected to restraint plus water immersion stress (25° C.) for 6 hours. Thereafter, the stomach was excised and fixed by formalin. The degree of ulcer was shown as a total of the length. The control group was given only the solvent.

The target of data set [4] is T2, Δ^4 -5α-reductase for aldosterone in rat liver (Rattus norvegicus, UniProt P24008).
T2 construct: The pellet was appropriately diluted with a solution of 0.25 M sucrose-1 mM EDTA to use as a 5α-reductase solution; from tissue; host or cells: rat liver, 105,000 g pellet
T2 sequence (P24008 1-259): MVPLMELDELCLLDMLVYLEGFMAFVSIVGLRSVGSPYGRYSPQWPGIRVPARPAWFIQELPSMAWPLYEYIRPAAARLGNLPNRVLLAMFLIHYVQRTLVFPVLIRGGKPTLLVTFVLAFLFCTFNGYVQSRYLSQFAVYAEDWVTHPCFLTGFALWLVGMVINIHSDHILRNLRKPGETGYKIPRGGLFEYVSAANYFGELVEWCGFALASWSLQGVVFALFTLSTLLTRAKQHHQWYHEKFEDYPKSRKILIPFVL
The data set is described as follows: inhibitory action on Δ^4-5α-reductase for aldosterone. Type of data set: biochemical. The note with it: for inhibition at 0.173 µM: pH 7.2, read-out: 5α-reductase (inhibition %). On the procedure:
as §1, §2, §3, §4, §5, §6, §7, §8, §9, §10, §11

Data set [5] concerns aspirin-induced ulcer. The data set is described as follows: rat experiment on aspirin-induced ulcer, pylorus ligated (experiment a). Type of data set: in vivo, male Wister rats. Particulars: rat, in vivo. On the procedure: (b) Rat experiment on aspirin-induced ulcer
(a) Experimental procedures:
Male Wister rats weighing about 220 g were made to fast for 24 hours. Water was given freely. The rats were laparotomized under anesthesia with ether. The stomach was drawn out and ligated at the pylorus. Immediately thereafter, 1% CMC suspension of aspirin was administered orally in a dose of 100 mg/kg/5 ml. Aqueous suspensions of compounds to be tested were prepared in the same manner as in the experiment (a) and administered intraduodenally at the same time. The wound was closed and the rats were set free. After 7 hours, the stomach was excised and ulcer was measured in the same manner as in the experiment (a).

The subject of data set [6] is PCA reaction (type I allergy). The data set is described as follows: PCA test (type I allergy). The note with it: serum 1/64, 200 mg/kg intraperitoneally; control 16.4 ± 2.8. It counts as in vivo, male Wister rats. On the procedure: (a) PCA--Test (type I allergy)
Male Wister rats weighing […] were shaved at the abdomen. After 24 hours, 0.05 ml of serum diluted with saline (Blood samples were diluted to 1/32 and 1/64; The blood samples were collected from rats 3 weeks after administration of pertussis vaccine and egg albumin.) was injected intradermally at the abdomen. After 48 hours, compounds to be tested were administered intraperitoneally. Two hours thereafter, 0.5 ml./100 g of a solution of antigen and pigment (a solution of 0.4% egg albumin and 0.5% Pontamine sky blue) was administered. After 45 minutes, the rats were decapitated and bled, and the diameter of the pigment-leaking site under the skin was measured to obtain the area.

In data set [7] the test system is writhing induced by acetic acid. Put plainly: effect on writhing induced by acetic acid (analgesic action). It counts as in vivo, male ddY mice. The note with it: for number of writhing: 200 mg/kg p.o., counted for 10 minutes, control 24.9 ± 1.6, ** p < 0.01. On the procedure: (b) Effect on writhing induced by acetic acid (analgesic action)
The present compound olean-12-ene-3β, 30-diol (I) was administered orally to male ddY mice weighing 25-27 g. After 30 minutes, saline containing 0.7% acetic acid was administered intraperitoneally. The number of writhings of the mice was counted for 10 minutes from, 10 min. of the administration. Aspirin was used as the reference.

Data set [8] has as its system rat paw edema induced with carrageenin. The data set is described as follows: test on rat paw edema induced with carrageenin (antiinflammatory). It counts as in vivo, male Wister rats. The note with it: 200 mg/kg p.o., after three hours. On the procedure: (a) Test on rat paw induced with carrageenin
To the plantar side of the hind paw of male Wister rats was administered subcutaneously 0.05 ml/rat of 10% saline solution of carrageenin. Edema after three hours was measured by the volume method and the rate of inhibition was assayed. Compounds were administered orally 30 minutes before administration of carrageenin. [formula]

Data set [9] deals with aspirin-induced ulcer. Put plainly: rat experiment on aspirin-induced ulcer, oral (experiment b). It counts as in vivo, male Wister rats. The note with it: 200 mg/kg p.o., after 5 hours; control 0. On the procedure: (b) Experimental procedures:
Male Wister rats weighing 120-140 g were made to fast for 24 hours, and compounds to be tested were administered orally. After 5 hours, the rats were killed by a blow. The stomach was excised and observed for the presence of ulcer.
The size of ulcer was measured by ulcer index (ulcer length×width mm^2).

[10] abbreviates: summary in words, liver reductase.

With `CC1(C)[C@@H](O[C@H]2O[C@H](C(=O)O)[C@@H](O)[C@H](O)[C@H]2O[C@@H]2O[C@H](C(=O)O)[C@@H](O)[C@H](O)[C@H]2O)CC[C@]2(C)[C@H]3C(=O)C=C4[C@@H]5C[C@@](C)(C(=O)O)CC[C@]5(C)CC[C@@]4(C)[C@]3(C)CC[C@@H]12` [Glycyrrhizin], the “side effect (in words)” value in [1] was “pseudoaldosteronism such as hypertension, hypopotassemia, and edema”.
`CC1(C)[C@@H](O)CC[C@]2(C)[C@H]3C(=O)C=C4[C@@H]5C[C@@](C)(C(=O)O)CC[C@]5(C)CC[C@@]4(C)[C@]3(C)CC[C@@H]12` [II, olean-12-ene-11-oxo-3β-ol-30-oic acid, reference compound]: the inhibition at 0.173 µM (stock) in [2] (equimolar to aldosterone (0.173 μM), 37° C., 20 minutes, pH 7.2) is 87.7 ± 2.2%. For the same compound, in [2] (setting [10]), the “effect upon Δ^4 -5α-5β-reductase (in words), 5β” value is listed as “strongly inhibited the activity of the reductase”. Also, the “ulcer value (major axis × minor axis)” value is 10.4 ± 2.7 in data set [3] (Experiment 1, 200 mg/kg (half dose twice/day), control 12.0 ± 2.3); 8.6 ± 2.2 in data set [3] (Experiment 1, 400 mg/kg (half dose twice/day), control 12.0 ± 2.3); 11.5 ± 2.2 in data set [3] (Experiment 2, 200 mg/kg (half dose twice/day), control 8.9 ± 1.7); 5.8 ± 1.0 in data set [3] (Experiment 2, 400 mg/kg (half dose twice/day), control 8.9 ± 1.7); 10.9 ± 1.7 in data set [3] (Total, 200 mg/kg (half dose twice/day), control 10.4 ± 1.4); 7.1 ± 1.2 in [3] (Total, 400 mg/kg (half dose twice/day), control 10.4 ± 1.4, * p < 0.05). Also, the “inhibitory effect on acetic acid ulcer (in words)” value in [3] (dose of 400 mg) is on record as “clearly showed inhibitory effects”. Further, the “inhibitory effect on stress-induced ulcer (in words)” value with stress-induced ulcer is “showed the inhibitory effect”. Also, in data set [4] (setting [10]), the “effect upon Δ^4 -5α-5β-reductase (in words), 5α” value is listed as “strongly inhibited the activity of the reductase”. In the data set with aspirin-induced ulcer [5], the “inhibitory effect on aspirin-induced ulcer, experiment (a) (in words)” value is on record as “scarcely showed the effect”. The area in data set [6] is 7.7 ± 6.5 mm^2. The number of writhing in [7] was found to be 15.2 ± 3.6. Moreover, the “effect on writhing (in words)” value in data set [7] (increasing doses) is recorded as “significantly decrease the number of writhing”.
For `CC1(C)[C@@H](O)CC[C@]2(C)[C@H]3CC=C4[C@@H]5C[C@@](C)(C(=O)O)CC[C@]5(C)CC[C@@]4(C)[C@]3(C)CC[C@@H]12` [III, olean-12-ene-3β-ol-30-oic acid], the “inhibitory effect on stress-induced ulcer (in words)” value with stress-induced ulcer is recorded as “showed the effect”. The ulcer index with stress-induced ulcer (200 mg/kg p.o., 5th experiment, control 4.13 ± 0.53) stood at 3.38 ± 0.79. The inhibition at 0.173 µM in data set [4] is -0.5 ± 6.6%.
As to `CC1(C)[C@@H](O)CC[C@]2(C)[C@H]3C(=O)C=C4[C@@H]5C[C@@](C)(CO)CC[C@]5(C)CC[C@@]4(C)[C@]3(C)CC[C@@H]12` [IV, olean12-ene-11-oxo-3β, 30diol], the inhibition at 0.173 µM in [4] is 26.5 ± 5.6%.
`CC(=O)Oc1ccccc1C(=O)O` [aspirin, reference compound] had an edema % in [8] (control 71 ± 6) of 17 ± 3%. The inhibition at 200 mg/kg in data set [8] (Rattus norvegicus, po, 3 h, edema) was 76.1%. For the same compound, the “ulcer index (ulcer length×width)” value with aspirin-induced ulcer [9] came to 7.11 ± 1.1 mm^2. In [7], this compound yielded a number of writhing of 0.

For orientation: inhibition means the change of the read-out against control, counted positive when it falls.

Source of the values: US4374284A, “Antiulcer, antiinflammatory, and antiallergic agent comprising as the main ingredient olean-12-ene-3β, 30-diol which is devoid of side effects of glycyrrhetinic acid and a new process for preparation of olean-12-ene-3β, 30-diol” (Minophagen Pharmaceutical Company, priority 1980, dated 1983).
